# What was measured:
# [1] = biological target: T1, Tyrosine-protein kinase TXK (Homo sapiens, UniProt P42681); test: Inhibition of Txk (unknown origin) using GST-SLP-76 as peptide substrate incubated for 10 mins in presence of [gamma-33P]ATP by scintillation counter assay
# T1 sequence (P42681 whole entry): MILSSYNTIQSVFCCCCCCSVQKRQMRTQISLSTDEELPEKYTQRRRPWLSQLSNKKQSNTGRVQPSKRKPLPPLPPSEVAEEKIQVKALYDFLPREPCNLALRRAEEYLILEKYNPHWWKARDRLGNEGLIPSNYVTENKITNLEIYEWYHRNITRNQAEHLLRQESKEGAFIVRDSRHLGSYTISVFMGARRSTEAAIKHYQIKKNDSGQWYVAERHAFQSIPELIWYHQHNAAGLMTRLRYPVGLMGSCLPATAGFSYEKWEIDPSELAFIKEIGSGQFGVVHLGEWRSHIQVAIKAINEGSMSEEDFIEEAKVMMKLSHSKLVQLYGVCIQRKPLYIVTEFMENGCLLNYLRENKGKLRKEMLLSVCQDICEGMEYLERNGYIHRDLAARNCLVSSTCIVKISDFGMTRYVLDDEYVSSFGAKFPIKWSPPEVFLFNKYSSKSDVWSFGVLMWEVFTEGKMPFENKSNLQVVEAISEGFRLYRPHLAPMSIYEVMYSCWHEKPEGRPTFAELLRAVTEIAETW
# [2] = biological target: T2, Tyrosine-protein kinase Tec (Homo sapiens, UniProt P42680); test: Inhibition of Tec (unknown origin) using GST-SLP-76 as peptide substrate incubated for 10 mins in presence of [gamma-33P]ATP by scintillation counter assay
# T2 sequence (P42680 whole entry): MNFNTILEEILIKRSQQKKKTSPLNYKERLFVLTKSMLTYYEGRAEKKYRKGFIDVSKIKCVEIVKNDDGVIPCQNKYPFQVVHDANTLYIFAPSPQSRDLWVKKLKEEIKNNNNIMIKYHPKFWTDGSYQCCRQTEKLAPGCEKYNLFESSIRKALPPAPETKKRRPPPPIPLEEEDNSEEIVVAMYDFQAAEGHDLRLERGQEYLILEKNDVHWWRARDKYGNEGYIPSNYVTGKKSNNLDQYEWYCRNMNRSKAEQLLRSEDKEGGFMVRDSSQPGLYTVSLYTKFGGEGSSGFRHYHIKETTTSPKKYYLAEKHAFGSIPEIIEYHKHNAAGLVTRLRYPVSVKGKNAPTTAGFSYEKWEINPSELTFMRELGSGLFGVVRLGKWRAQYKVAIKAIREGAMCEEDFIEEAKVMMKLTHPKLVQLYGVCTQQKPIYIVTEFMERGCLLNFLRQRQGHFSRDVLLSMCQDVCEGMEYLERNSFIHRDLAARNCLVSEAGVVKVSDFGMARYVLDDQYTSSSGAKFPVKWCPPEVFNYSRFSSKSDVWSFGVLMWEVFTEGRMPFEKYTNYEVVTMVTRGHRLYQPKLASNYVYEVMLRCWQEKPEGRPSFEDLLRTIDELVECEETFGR
# [3] = biological target: Tyrosine-protein kinase BTK (Homo sapiens, UniProt Q06187); test: Inhibition of Btk (unknown origin) using GST-SLP-76 as peptide substrate incubated for 10 mins in presence of [gamma-33P]ATP by scintillation counter assay
# [4] = biological target: T3, Cytoplasmic tyrosine-protein kinase BMX (Homo sapiens, UniProt P51813); test: Inhibition of Bmx (unknown origin) using GST-SLP-76 as peptide substrate incubated for 10 mins in presence of [gamma-33P]ATP by scintillation counter assay
# T3 sequence (P51813 whole entry): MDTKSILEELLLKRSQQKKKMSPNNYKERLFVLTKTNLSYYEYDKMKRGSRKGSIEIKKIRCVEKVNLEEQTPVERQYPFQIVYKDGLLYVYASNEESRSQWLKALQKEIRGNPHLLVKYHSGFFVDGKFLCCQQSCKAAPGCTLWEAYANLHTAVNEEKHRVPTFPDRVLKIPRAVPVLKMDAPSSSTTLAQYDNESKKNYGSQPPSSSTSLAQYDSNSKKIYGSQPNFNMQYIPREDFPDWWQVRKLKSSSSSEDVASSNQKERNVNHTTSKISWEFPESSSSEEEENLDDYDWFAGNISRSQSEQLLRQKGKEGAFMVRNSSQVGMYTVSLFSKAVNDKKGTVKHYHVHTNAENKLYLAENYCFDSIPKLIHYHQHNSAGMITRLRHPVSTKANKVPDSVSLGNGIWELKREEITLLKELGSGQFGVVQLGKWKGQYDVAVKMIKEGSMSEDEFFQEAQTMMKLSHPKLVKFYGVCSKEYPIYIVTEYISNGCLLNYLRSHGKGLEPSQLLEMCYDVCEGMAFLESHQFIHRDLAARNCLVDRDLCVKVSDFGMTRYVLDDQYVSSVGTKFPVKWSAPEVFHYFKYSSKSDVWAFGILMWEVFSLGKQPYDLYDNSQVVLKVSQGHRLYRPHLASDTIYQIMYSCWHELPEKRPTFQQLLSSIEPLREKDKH
# [5] = biological target: Tyrosine-protein kinase Lck (Homo sapiens, UniProt P06239); test: Inhibition of Lck (unknown origin) using GST-SLP-76 as peptide substrate incubated for 10 mins in presence of [gamma-33P]ATP by scintillation counter assay
# [6] = biological target: Tyrosine-protein kinase SYK (Homo sapiens, UniProt P43405); test: Inhibition of Syk (unknown origin) using GST-SLP-76 as peptide substrate incubated for 10 mins in presence of [gamma-33P]ATP by scintillation counter assay
# [7] = biological target: T4, Tyrosine-protein kinase ZAP-70 (Homo sapiens, UniProt P43403); test: Inhibition of ZAP-70 (unknown origin) using GST-SLP-76 as peptide substrate incubated for 10 mins in presence of [gamma-33P]ATP by scintillation counter assay
# T4 sequence (P43403 whole entry): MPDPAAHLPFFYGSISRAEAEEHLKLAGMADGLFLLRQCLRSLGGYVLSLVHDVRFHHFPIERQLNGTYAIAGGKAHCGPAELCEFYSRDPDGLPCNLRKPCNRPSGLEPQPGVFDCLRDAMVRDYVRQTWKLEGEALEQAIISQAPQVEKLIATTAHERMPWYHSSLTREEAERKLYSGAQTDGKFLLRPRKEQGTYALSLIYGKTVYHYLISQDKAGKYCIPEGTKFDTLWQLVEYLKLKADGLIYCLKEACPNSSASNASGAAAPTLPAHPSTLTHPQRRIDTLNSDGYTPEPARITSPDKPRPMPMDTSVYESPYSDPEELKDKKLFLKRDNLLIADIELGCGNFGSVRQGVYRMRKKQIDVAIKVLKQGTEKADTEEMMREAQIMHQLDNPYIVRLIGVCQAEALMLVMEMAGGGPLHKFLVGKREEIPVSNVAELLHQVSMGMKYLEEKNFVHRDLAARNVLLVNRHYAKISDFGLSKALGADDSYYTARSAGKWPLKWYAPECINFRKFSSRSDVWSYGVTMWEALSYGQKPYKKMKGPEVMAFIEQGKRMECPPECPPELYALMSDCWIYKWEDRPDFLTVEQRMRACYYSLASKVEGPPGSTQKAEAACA
# [8] = biological target: Epidermal growth factor receptor (Homo sapiens, UniProt P00533); test: Inhibition of EGFR (unknown origin) using GST-SLP-76 as peptide substrate incubated for 10 mins in presence of [gamma-33P]ATP by scintillation counter assay
# [9] = biological target: Cyclin-dependent kinase 2 (Homo sapiens, UniProt P24941); test: Inhibition of Cdk2 (unknown origin) using GST-SLP-76 as peptide substrate incubated for 10 mins in presence of [gamma-33P]ATP by scintillation counter assay
# [10] = biological target: Mitogen-activated protein kinase 3 (Homo sapiens, UniProt P27361); test: Inhibition of ERK-1 (unknown origin) using GST-SLP-76 as peptide substrate incubated for 10 mins in presence of [gamma-33P]ATP by scintillation counter assay
# [11] = biological target: cAMP-dependent protein kinase (PKA) (Homo sapiens, UniProt P22694+P17612+P22612); test: Inhibition of PKA (unknown origin) using GST-SLP-76 as peptide substrate incubated for 10 mins in presence of [gamma-33P]ATP by scintillation counter assay; assay type: protein assay
# Protein kinase C (PKC) = test: Inhibition of PKC (unknown origin) using GST-SLP-76 as peptide substrate incubated for 10 mins in presence of [gamma-33P]ATP by scintillation counter assay; assay type: protein assay, Homo sapiens
# Sequence of Tyrosine-protein kinase Lck (P06239 whole entry): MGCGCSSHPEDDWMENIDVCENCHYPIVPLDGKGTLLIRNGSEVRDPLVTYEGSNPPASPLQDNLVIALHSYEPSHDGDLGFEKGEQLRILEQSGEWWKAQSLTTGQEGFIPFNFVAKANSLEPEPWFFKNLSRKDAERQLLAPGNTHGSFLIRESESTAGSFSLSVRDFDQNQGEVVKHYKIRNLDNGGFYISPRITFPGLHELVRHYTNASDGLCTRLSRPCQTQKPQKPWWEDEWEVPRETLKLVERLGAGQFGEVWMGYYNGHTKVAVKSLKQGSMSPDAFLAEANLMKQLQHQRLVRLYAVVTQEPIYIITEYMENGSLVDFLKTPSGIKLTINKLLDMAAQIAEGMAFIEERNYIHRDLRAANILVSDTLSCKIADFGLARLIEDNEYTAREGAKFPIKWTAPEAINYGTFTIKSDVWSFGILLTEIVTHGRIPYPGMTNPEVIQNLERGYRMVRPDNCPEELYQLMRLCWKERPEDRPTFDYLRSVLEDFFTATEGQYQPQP
# Sequence of Mitogen-activated protein kinase 3 (P27361 whole entry): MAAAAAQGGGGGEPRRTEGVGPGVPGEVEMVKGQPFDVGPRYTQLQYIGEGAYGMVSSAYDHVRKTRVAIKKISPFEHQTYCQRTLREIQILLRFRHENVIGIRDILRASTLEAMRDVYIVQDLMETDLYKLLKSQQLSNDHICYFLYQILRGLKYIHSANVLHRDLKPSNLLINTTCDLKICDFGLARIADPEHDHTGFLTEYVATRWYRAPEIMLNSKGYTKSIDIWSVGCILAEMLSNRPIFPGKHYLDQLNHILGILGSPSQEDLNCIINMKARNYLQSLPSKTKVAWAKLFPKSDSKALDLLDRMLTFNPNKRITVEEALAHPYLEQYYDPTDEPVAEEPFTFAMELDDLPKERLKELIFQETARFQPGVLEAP
# Sequence of Tyrosine-protein kinase BTK (Q06187 whole entry): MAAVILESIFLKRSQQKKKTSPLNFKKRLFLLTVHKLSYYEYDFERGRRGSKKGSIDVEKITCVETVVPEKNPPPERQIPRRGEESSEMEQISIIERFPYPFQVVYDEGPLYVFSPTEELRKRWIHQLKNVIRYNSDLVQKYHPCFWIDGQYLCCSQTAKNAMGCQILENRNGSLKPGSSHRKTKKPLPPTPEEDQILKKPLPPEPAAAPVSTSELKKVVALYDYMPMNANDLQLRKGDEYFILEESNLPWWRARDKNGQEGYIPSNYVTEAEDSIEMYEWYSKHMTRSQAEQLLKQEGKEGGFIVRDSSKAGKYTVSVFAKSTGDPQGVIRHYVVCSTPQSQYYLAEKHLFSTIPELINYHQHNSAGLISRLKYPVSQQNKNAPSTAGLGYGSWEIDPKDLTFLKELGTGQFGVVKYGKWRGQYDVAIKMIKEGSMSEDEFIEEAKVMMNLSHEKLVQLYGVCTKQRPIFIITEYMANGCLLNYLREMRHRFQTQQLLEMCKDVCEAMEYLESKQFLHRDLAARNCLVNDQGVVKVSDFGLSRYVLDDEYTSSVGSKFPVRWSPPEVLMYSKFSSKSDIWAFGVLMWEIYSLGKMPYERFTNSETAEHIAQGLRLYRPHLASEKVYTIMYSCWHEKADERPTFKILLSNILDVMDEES
# Sequence of Epidermal growth factor receptor (P00533 whole entry): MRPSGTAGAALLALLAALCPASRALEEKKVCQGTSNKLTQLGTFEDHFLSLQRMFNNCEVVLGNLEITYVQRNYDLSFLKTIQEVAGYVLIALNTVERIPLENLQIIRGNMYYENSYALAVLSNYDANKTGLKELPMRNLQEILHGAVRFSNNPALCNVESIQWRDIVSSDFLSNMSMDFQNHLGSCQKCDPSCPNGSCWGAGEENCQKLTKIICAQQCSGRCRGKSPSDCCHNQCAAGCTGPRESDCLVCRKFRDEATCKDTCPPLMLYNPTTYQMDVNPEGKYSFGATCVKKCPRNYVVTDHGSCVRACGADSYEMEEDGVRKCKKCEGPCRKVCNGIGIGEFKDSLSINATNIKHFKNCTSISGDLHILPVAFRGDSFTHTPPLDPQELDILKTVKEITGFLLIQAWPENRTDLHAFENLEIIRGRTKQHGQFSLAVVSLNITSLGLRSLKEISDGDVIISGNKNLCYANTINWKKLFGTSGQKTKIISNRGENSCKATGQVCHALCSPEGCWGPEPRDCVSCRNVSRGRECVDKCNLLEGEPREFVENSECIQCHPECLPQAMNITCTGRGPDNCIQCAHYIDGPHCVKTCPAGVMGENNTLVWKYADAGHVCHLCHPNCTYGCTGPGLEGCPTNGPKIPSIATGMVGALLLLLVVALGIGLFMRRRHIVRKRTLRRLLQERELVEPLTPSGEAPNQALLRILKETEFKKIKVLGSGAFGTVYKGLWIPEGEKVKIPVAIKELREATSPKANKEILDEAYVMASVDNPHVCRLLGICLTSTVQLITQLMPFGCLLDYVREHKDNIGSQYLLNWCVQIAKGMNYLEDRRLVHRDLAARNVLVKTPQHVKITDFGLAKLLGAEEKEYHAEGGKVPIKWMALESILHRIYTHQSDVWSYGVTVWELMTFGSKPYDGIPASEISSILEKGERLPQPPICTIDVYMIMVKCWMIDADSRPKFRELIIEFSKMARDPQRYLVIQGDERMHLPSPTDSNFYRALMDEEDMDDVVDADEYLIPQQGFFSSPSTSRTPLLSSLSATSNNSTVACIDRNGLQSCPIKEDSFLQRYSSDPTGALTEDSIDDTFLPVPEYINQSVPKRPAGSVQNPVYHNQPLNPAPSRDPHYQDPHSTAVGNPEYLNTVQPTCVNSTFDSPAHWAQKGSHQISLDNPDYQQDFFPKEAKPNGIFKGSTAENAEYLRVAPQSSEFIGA
structure (smiles),measurement,setting,value
CC(=O)N1CCN(C(=O)c2cccc(CSc3cnc(NC(=O)c4ccc(N(C)C)cc4)s3)c2)CC1,IC50,[1],> 50 µM
same,IC50,[2],> 50 µM
same,IC50,[3],49 µM
same,IC50,[4],20 µM
same,IC50,[5],> 25 µM
same,IC50,[6],> 50 µM
same,IC50,[7],> 50 µM
same,IC50,[8],> 50 µM
same,IC50,[9],27 µM
same,IC50,[10],> 50 µM
same,IC50,[11],> 50 µM
same,IC50,Protein kinase C (PKC),> 50 µM

# Reference: ChEMBL document CHEMBL5715936, “Selective Itk inhibitors block T-cell activation and murine lung inflammation” (Biochemistry, 2004)
